Here are results for three compounds from ChEMBL document CHEMBL4138065, “Protein-ligand (un)binding kinetics as a new paradigm for drug discovery at the crossroad between experiments and modelling” (Medchemcomm, 2017).

This test concerns the target T1, C5a anaphylatoxin chemotactic receptor 1 (Homo sapiens) (UniProt P21730).
T1 sequence (whole entry): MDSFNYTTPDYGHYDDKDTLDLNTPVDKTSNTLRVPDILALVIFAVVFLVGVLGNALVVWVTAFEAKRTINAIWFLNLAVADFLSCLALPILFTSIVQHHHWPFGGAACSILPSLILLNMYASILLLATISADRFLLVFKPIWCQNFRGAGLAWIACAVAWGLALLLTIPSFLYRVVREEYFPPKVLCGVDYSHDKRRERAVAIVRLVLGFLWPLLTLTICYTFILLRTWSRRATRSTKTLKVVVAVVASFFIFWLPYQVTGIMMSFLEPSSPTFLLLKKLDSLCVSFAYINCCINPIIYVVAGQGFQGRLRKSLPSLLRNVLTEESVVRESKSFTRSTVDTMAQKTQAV
Description: Antagonist activity at of C5aR in human macrophages assessed as half life of residence time for maintaining reduction in C5a-induced macrophage response. It counts as functional.
For the compound `CCc1cccc(CC)c1-c1cc(OC(C)C)c2c(n1)CCCC2Nc1ccccc1CCO` (stereo not drawn), the T1/2 lay within 1 to 3 h.

Regarding `CC(=O)N[C@@H](Cc1ccccc1)C(=O)N[C@H]1CCCNC(=O)[C@H](CCCN=C(N)N)NC(=O)[C@H](Cc2c[nH]c3ccccc23)NC(=O)[C@@H](CC2CCCCC2)NC(=O)[C@@H]2CCCN2C1=O`, the T1/2 was 20 h. With `COc1ccc2c(c1)C(C(=O)N(Cc1ccc(N(C)C)cc1)c1ccc(C(C)C)cc1)CCC2` (stereo not drawn), the T1/2 was 1 to 3 h.
